Reference: ChEMBL document CHEMBL1136148, “Tetrabiphenylporphyrin-based receptors for protein surfaces show sub-nanomolar affinity and enhance unfolding” (Bioorg Med Chem Lett, 2003)
pKd: −log10 of the molar value.

assay: Binding ability of the receptor to the surface of Cytochrome c and activity expressed as Dissociation constant(Kd); parameters: species or system Equus caballus

pKd | SMILES
5.77 | COC(=O)[C@H](CC(=O)O)NC(=O)c1cc(C(=O)N[C@@H](CC(=O)O)C(=O)OC)cc(-c2ccc(-c3c4nc(c(-c5ccc(-c6cc(C(=O)N[C@@H](CC(=O)O)C(=O)OC)cc(C(=O)N[C@@H](CC(=O)O)C(=O)OC)c6)cc5)c5ccc([nH]5)c(-c5ccc(-c6cc(C(=O)N[C@@H](CC(=O)O)C(=O)OC)cc(C(=O)N[C@H](CC(=O)O)C(=O)OC)c6)cc5)c5nc(c(-c6ccc(-c7cc(C(=O)N[C@@H](CC(=O)O)C(=O)OC)cc(C(=O)N[C@@H](CC(=O)O)C(=O)OC)c7)cc6)c6ccc3[nH]6)C=C5)C=C4)cc2)c1
4.77 | O=C(O)c1ccc(-c2ccc(-c3c4nc(c(-c5ccc(-c6ccc(C(=O)O)cc6)cc5)c5ccc([nH]5)c(-c5ccc(-c6ccc(C(=O)O)cc6)cc5)c5ccc([nH]5)c(-c5ccc(-c6ccc(C(=O)O)cc6)cc5)c5nc3C=C5)C=C4)cc2)cc1
5.82 | O=C(O)c1cc(C(=O)O)cc(-c2ccc(-c3c4nc(c(-c5ccc(-c6cc(C(=O)O)cc(C(=O)O)c6)cc5)c5ccc([nH]5)c(-c5ccc(-c6cc(C(=O)O)cc(C(=O)O)c6)cc5)c5ccc([nH]5)c(-c5ccc(-c6cc(C(=O)O)cc(C(=O)O)c6)cc5)c5nc3C=C5)C=C4)cc2)c1
9.17 | O=C(O)C[C@H](NC(=O)c1cc(C(=O)N[C@@H](CC(=O)O)C(=O)O)cc(-c2ccc(-c3c4nc(c(-c5ccc(-c6cc(C(=O)N[C@@H](CC(=O)O)C(=O)O)cc(C(=O)N[C@@H](CC(=O)O)C(=O)O)c6)cc5)c5ccc([nH]5)c(-c5ccc(-c6cc(C(=O)N[C@@H](CC(=O)O)C(=O)O)cc(C(=O)N[C@H](CC(=O)O)C(=O)O)c6)cc5)c5nc(c(-c6ccc(-c7cc(C(=O)N[C@@H](CC(=O)O)C(=O)O)cc(C(=O)N[C@@H](CC(=O)O)C(=O)O)c7)cc6)c6ccc3[nH]6)C=C5)C=C4)cc2)c1)C(=O)O
